{
  "source": "patent US20190359645A1",
  "about": "“2'3'-CYCLIC DINUCLEOTIDES COMPRISING CARBOCYCLIC NUCLEOTIDE” (Institute of Organic Chemistry and Biochemistry ASCR, V.V.I., priority 2018, published 2019)",
  "data": [
    {"target": "WT STING (Homo sapiens, UniProt Q86WV6, H232R)", "sequence (Q86WV6 whole entry H232R)": "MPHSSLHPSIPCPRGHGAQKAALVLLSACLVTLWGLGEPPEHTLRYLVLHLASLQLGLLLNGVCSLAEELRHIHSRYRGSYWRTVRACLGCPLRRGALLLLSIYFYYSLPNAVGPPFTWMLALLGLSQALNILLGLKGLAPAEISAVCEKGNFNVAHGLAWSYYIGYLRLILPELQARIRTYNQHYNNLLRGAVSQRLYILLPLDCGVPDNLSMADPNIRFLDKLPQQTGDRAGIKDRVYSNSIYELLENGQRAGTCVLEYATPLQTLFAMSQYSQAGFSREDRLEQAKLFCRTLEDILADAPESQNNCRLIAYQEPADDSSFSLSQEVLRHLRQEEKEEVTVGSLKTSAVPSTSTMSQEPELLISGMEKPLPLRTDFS", "assay": "Digitonin assay using 293T wtSTING-FL reporter cells", "type": "cell-based", "design": "host or cells: 293T (ATCC CRL-3216), stably transfected; also carries the 4xISRE firefly luciferase reporter", "conditions": "293T wtSTING-FL cells, digitonin buffer 30 min, then 5 h, ISRE firefly luciferase reporter; read-out: Digitonin assay EC50 WT STING", "excerpt": "Two complementary oligonucleotides of the sequence […] […] […] […] (SEQ ID NO: 1) and […] […] (SEQ ID NO:2) containing four interferon-sensitive response elements (ISRE) were synthesized by Sigma Aldrich (Czech Republic, Prague). The oligonucleotides were mixed in equal molar amounts, hybridized, and cleaved by restriction endonucleases HindIII (cat. #. R^0104S, NEB, Ipswich, USA) and BglII (cat. # R^0144S, NEB, Ipswich, USA). Ultimately, they were ligated into plasmid pGL4.27 (cat. # E6651, Promega, Madison, USA) linearized with the same enzymes. As a result, the sequence with four ISRE sites was placed upstream of the minimum promoter of firefly luciferase reporter gene.\n293T cells (cat. # CRL-3216, ATCC, Manassas, USA) were seeded a day before transfection at density 125,000 cells per cm^2 onto poly-D-lysine (cat. # P6407, Sigma Aldrich, Czech Republic) coated six well plates in antibiotic free DMEM with high glucose (cat. # D5796, Sigma Aldrich, Czech Republic) supplemented with 10% heat inactivated FBS (cat. # S1520, Biowest, Riverside, USA). On the day of transfection, 2.5 μg of the plasmid pUNO1-hSTING-WT (cat. # punol-hstingwt, InvivoGen, San Diego, USA,) encoding human wild type STING (WT STING) was diluted in 125 μL OptiMEM medium (cat. #31985062, ThermoFisher, Waltham, USA) and mixed with 125 μL of the same medium containing 12.5 μL of Lipofectamine 2000 (cat. #11668019, ThermoFisher, Waltham, USA). After 5 minutes incubation at room temperature (RT), 250 μL of the mixture was added dropwise to the cells in one well. Cells were incubated 36 hours at 37° C. with 5% CO2, and then detached with 0.05% Trypsin and 0.22 g/L EDTA (both cat. # L0941, Biowest, Riverside, USA).\nTransfected cells were seeded onto poly-D-lysine coated six well plates at density 50,000 cells per 1 cm^2 in DMEM medium with high glucose containing 10% heat inactivated FBS, […] blasticidin (cat. # ant-bl-05, InvivoGen, San Diego, USA), 0.06 mg/ml Penicillin G and 0.1 mg/ml Streptomycin Sulfate (both cat. #. L0018, Biowest, Riverside, USA). The medium was replenished every 3-4 days until visible colonies of cells resistant to blasticidin were formed.\nBlasticidin resistant cells stably expressing WT STING were further transfected with […] plasmid following the same procedure as described above. The transfected cells were selected for the resistance to 300 μg/mL hygromycin (cat. #. 10687010, ThermoFisher, Waltham, USA) in DMEM with high glucose containing 10% heat inactivated FBS, […] blasticidin, 0.06 mg/ml Penicillin G and 0.1 mg/ml Streptomycin Sulfate. Homogeneous culture of stably double transfected cells was prepared by limiting dilution of cells in 96 well plates and wells with cells were selected that originated from a single cell. These cells were expanded, and expression of WT STING was confirmed by western blot using monoclonal mouse anti STING antibodies (cat. #. MAB7169, 1:1000 dilution; […] cat. #. HAF007, 1:2000 dilution, both from R&D Systems, Minneapolis, USA), and by induction of firefly luciferase expression in the presence of 50 μM STING agonist 2′3′ cGAMP (cat. # tlrl-nacga23, InvivoGen, San Diego, USA). Genomic DNA from the transfected cells was amplified with primers pUNO1_Seq_F ([…]) (SEQ ID NO:3) and pUNO1_Seq_R ([…]) (SEQ ID NO:4) that were complementary to pUNO1 plasmid and the presence of WT STING gene in the transfected cells was confirmed by DNA sequencing.\n293T wtSTING-FL cells were seeded at density of 250,000 cells per cm^2 onto 96 well poly-D-lysine coated plates in 100 μl DMEM with high glucose supplemented with 10% heat inactivated FBS. […]", "units": {"EC50": "nM"}, "values": [
      {"smiles": "Cc1cn([C@@H]2O[C@@H]3COP(=O)(O)OC4C(O)[C@@H](COP(=O)(O)OC3C2O)C[C@H]4n2cnc3c(=O)[nH]c(N)nc32)c2ncnc(N)c12", "note": "(stereo partly drawn) [Compound 113, (6R,8R,15R,17R)-8-{4-amino-5-methyl-7H-pyrrolo[2,3-d]pyrimidin-7-yl}-17-(2-amino-6-oxo-6,9-dihydro-1H-purin-9-yl)-3,9,12,18-tetrahydroxy-2,4,7,11,13-pentaoxa-3λ^5,12λ^5-diphosphatricyclo[13.2.1.0^6,10]octadecane-3,12-dione]", "EC50": 120},
      {"smiles": "C#Cc1cn([C@@H]2O[C@@H]3COP(=O)(O)OC4C(O)[C@@H](COP(=O)(O)OC3C2O)C[C@H]4n2cnc3c(=O)[nH]c(N)nc32)c2ncnc(N)c12", "note": "(stereo partly drawn) [Compound 114, (6R,8R,15R,17R)-8-{4-amino-5-ethynyl-7H-pyrrolo 2,3-dlpyrimidin-7-yl}-17-(2-amino-6-oxo-6,9-dihydro-1H-purin-9-yl)-3,9,12,18-tetrahydroxy-2,4,7,11,13-pentaoxa-3λ^5,12λ^5-diphosphatricyclo[13.2.1.0^6,10]octadecane-3,12-dione]", "EC50": 400},
      {"smiles": "Nc1nc2c(ncn2[C@@H]2C[C@@H]3COP(=O)(O)OC4C(O)[C@H](n5cnc6c(Cl)ncnc65)O[C@@H]4COP(=O)(O)OC2C3O)c(=O)[nH]1", "note": "(stereo partly drawn) [Compound 115, (6R,8R,15R,17R)-17-(2-amino-6-oxo-6,9-dihydro-1H-purin-9-yl)-8-(6-chloro-9H-purin-9-yl)-3,9,12,18-tetrahydroxy-2,4,7,11,13-pentaoxa-3λ^5,12λ^5-diphosphatricyclo[13.2.1.0^6,10]octadecane-3,12-dione]", "EC50": 70},
      {"smiles": "Nc1nc2c(ncn2[C@@H]2C[C@@H]3COP(=O)(O)OC4C(O)[C@H](n5nnc6c(N)ncnc65)O[C@@H]4COP(=O)(O)OC2C3O)c(=O)[nH]1", "note": "(stereo partly drawn) [Compound 116, (6R,8R,15R,17R)-8-{7-amino-3H-[1,2,3]triazolo[4,5-d]pyrimidin-3-yl}-17-(2-amino-6-oxo-6,9-dihydro-1H-purin-9-yl)-3,9,12,18-tetrahydroxy-2,4,7,11,13-pentaoxa-3λ^5,12λ^5-diphosphatricyclo[13.2.1.0^6,10]octadecane-3,12-dione]", "EC50": 1700},
      {"smiles": "Nc1nc(N)c2ncn([C@@H]3O[C@@H]4COP(=O)(O)OC5C(O)[C@@H](COP(=O)(O)OC4C3F)C[C@H]5n3cnc4c(=O)[nH]c(N)nc43)c2n1", "note": "(stereo partly drawn) [Compound 117, (6R,8R,15R,17R)-17-(2-amino-6-oxo-6,9-dihydro-1H-purin-9-yl)-8-(2,6-diamino-9H-purin-9-yl)-9-fluoro-3,12,18-trihydroxy-2,4,7,11,13-pentaoxa-3λ^5,12λ^5-diphosphatricyclo[13.2.1.0^6,10]octadecane-3,12-dione]", "EC50": 50},
      {"smiles": "Nc1nc2c(ncn2[C@@H]2C[C@@H]3COP(=O)(S)OC4C(O)[C@H](n5cnc6c(N)ncnc65)O[C@@H]4COP(=O)(O)OC2C3O)c(=O)[nH]1", "note": "(stereo partly drawn) [Compound 118, (6R,8R,15R,17R)-17-(2-amino-6-oxo-6,9-dihydro-1H-purin-9-yl)-8-(6-amino-9H-purin-9-yl)-3,9,18-trihydroxy-12-sulfanyl-2,4,7,11,13-pentaoxa-3λ^5,12λ^5-diphosphatricyclo[13.2.1.0^6,10]octadecane-3,12-dione]", "EC50": 130},
      {"smiles": "Nc1ncc2ncn([C@@H]3O[C@@H]4COP(=O)(O)OC5C(O)[C@@H](COP(=O)(O)OC4C3O)C[C@H]5n3cnc4c(=O)[nH]cnc43)c2n1", "note": "(stereo partly drawn) [Compound 119, (6R,8R,15R,17R)-8-(2-amino-9H-purin-9-yl)-3,9,12,18-tetrahydroxy-17-(6-oxo-6,9-dihydro-1H-purin-9-yl)-2,4,7,11,13-pentaoxa-3λ^5,12λ^5-diphosphatricyclo[13.2.1.0^6,10]octadecane-3,12-dione]", "EC50": 400},
      {"smiles": "Nc1ncnc2c1ncn2[C@@H]1O[C@@H]2COP(=O)(O)OC3C(O)[C@@H](COP(=O)(O)OC2C1O)C[C@H]3n1cnc2c(=O)[nH]cnc21", "note": "(stereo partly drawn) [Compound 120, (6R,8R,15R,17R)-8-(6-amino-9H-purin-9-yl)-3,9,12,18-tetrahydroxy-17-(6-oxo-6,9-dihydro-1H-purin-9-yl)-2,4,7,11,13-pentaoxa-3λ^5,12λ^5-diphosphatricyclo[13.2.1.0^6,10]octadecane-3,12-dione]", "EC50": 30},
      {"smiles": "Nc1ncnc2c1ncn2[C@@H]1O[C@@H]2COP(=O)(O)OC3C(O)[C@@H](COP(=O)(O)OC2C1O)C[C@H]3n1cnc2c(=O)[nH]cnc21", "note": "(stereo partly drawn) [Compound 121, (6R,8R,15R,17R)-8-(6-amino-9H-purin-9-yl)-3,9,12,18-tetrahydroxy-17-(6-oxo-6,9-dihydro-1H-purin-9-yl)-2,4,7,11,13-pentaoxa-3λ^5,12λ^5-diphosphatricyclo[13.2.1.0^6,10]octadecane-3,12-dione]", "EC50": 500},
      {"smiles": "Nc1ncnc2c1ccn2[C@@H]1O[C@@H]2COP(=O)(O)OC3C(O)[C@@H](COP(=O)(O)OC2C1O)C[C@H]3n1cnc2c(=O)[nH]cnc21", "note": "(stereo partly drawn) [Compound 122, (6R,8R,15R,17R)-8-{4-amino-7H-pyrrolo[2,3-d]pyrimidin-7-yl}-3,9,12,18-tetrahydroxy-17-(6-oxo-6,9-dihydro-1H-purin-9-yl)-2,4,7,11,13-pentaoxa-3λ^5,12λ^5-diphosphatricyclo[13.2.1.0^6,10]octadecane-3,12-dione]", "EC50": 140},
      {"smiles": "Cc1cn([C@@H]2O[C@@H]3COP(=O)(O)OC4C(O)[C@@H](COP(=O)(O)OC3C2O)C[C@H]4n2cnc3c(=O)[nH]cnc32)c2ncnc(N)c12", "note": "(stereo partly drawn) [Compound 123, (6R,8R,15R,17R)-8-{4-amino-5-methyl-7H-pyrrolo[2,3-d]pyrimidin-7-yl}-3,9,12,18-tetrahydroxy-17-(6-oxo-6,9-dihydro-1H-purin-9-yl)-2,4,7,11,13-pentaoxa-3λ^5,12λ^5-diphosphatricyclo[13.2.1.0^6,10]octadecane-3,12-dione]", "EC50": 300},
      {"smiles": "Nc1ncnc2c1c(I)cn2[C@@H]1O[C@@H]2COP(=O)(O)OC3C(O)[C@@H](COP(=O)(O)OC2C1O)C[C@H]3n1cnc2c(=O)[nH]cnc21", "note": "(stereo partly drawn) [Compound 124, (6R,8R,15R,17R)-8-{4-amino-5-iodo-7H-pyrrolo[2,3-d]pyrimidin-7-yl}-3,9,12,18-tetrahydroxy-17-(6-oxo-6,9-dihydro-1H-purin-9-yl)-2,4,7,11,13-pentaoxa-3λ^5,12λ^5-diphosphatricyclo[13.2.1.0^6,10]octadecane-3,12-dione]", "EC50": 400},
      {"smiles": "CSc1ncnc2c1ncn2[C@@H]1O[C@@H]2COP(=O)(O)OC3C(O)[C@@H](COP(=O)(O)OC2C1O)C[C@H]3n1cnc2c(=O)[nH]cnc21", "note": "(stereo partly drawn) [Compound 125, (1S,6R,8R,9R,10S,15R,17R,18R)-3,9,12,18-tetrahydroxy-8-[16-(methylsulfanyl)-9H-purin-9-yl]-17-(6-oxo-6,9-dihydro-1H-purin-9-yl)-2,4,7,11,13-pentaoxa-3λ^5,12λ^5-diphosphatricyclo[13.2.1.0^6,10]octadecane-3,12-dione]", "EC50": 210},
      {"smiles": "Nc1ncnc2c1ncn2[C@@H]1O[C@@H]2COP(=O)(O)O[C@@H]3[C@@H](F)[C@@H](COP(=O)(O)O[C@H]2[C@H]1O)C[C@H]3n1cnc2c(=O)[nH]cnc21", "note": "[Compound 126, (1S,6R,8R,9R,10S,15R,17R,18S)-8-(6-amino-9H-purin-9-yl)-18-fluoro-3,9,12-trihydroxy-17-(6-oxo-6,9-dihydro-1H-purin-9-yl)-2,4,7,11,13-pentaoxa-3λ^5,12λ^5-diphosphatricyclo[13.2.1.0^6,10]octadecane-3,12-dione]", "EC50": 50}
    ]}
  ]
}
